Data from patent US20150073033A1, “BIOMARKERS FOR CANCER CHARACTERIZATION AND TREATMENT” (Board of Regents, The University of Texas System, priority 2011, published 2015).

Experiments:
Format in all cases: cell-based, human
IKKβ = test: EGF-induced IKKβ activation, immunoblotting; settings: U87/EGFR cells; U73122 2 μM 30 min before EGF 100 ng/mL 12 h
Method: (§1) FIG. 58: PKCε downstream from PLCγ1, rather than TAK1, activates IKKβ and subsequently increases PKM2 expression. […] B: U87/EGFR cells were treated with TNFα (10 ng/mL) for the indicated time. C: U87/EGFR cells were treated with or without EGF (100 ng/mL) or TNFα (10 ng/mL) for 4 h. […] HIF1α was immunodepleted from the cell lysates by incubation with an anti-HIF1α antibody, which was followed by a ChIP assay with an anti-FLAG antibody for immunoprecipitation of FLAG-RelA and PCR analysis with PKM promoter-specific primers. […] F: 293T cells were transiently transfected with constitutively active (+) or kinase-dead (−) PKC mutants. […] H, I: 293T cells were transiently transfected with the indicated plasmids.

PKM2 expression = test: EGF-induced PKM2 upregulation, immunoblotting; settings: U87/EGFR cells; pretreatment before EGF 100 ng/mL 12 h; AG1478 1 μM, cycloheximide 200 μg/mL, Bis-I 2 μM, Go6976 2 μM, NF-κB activation inhibitor II 7 μM, AKT inhibitor 10 μM, TBB 50 μM, U73122 2 μM
Method: FIG. 56: EGFR activation results in upregulation of PKM2 expression. A-D: Immunoblotting analyses were performed with or without the indicated antibodies. A: The indicated cell lines were treated with EGF (100 ng/mL) for 12 h. B: U87 cells were stably transfected with plasmids expressing EGFR or EGFRvIII. […] D: U87/EGFR cells were pretreated with or without cycloheximide (CHX) (200 μg/mL) for 30 min before EGF (100 ng/mL) treatment for 12 h. […] The relative mRNA levels of PKM2 and PKM1 were normalized to the levels of untreated cells and β-actin mRNA. Data represent the mean±SD of three independent experiments.
FIG. 57: EGF increases PKM2 expression in a PKC- and NF-κB-dependent manner. A-D, H: Immunoblotting analyses were performed with the indicated antibodies. […] ChIP assay was performed with an anti-RelA antibody for immunoprecipitation, followed by PCR with PKM promoter-specific primers. F: An oligonucleotide containing the putative WT or mutated NF-κB binding sequence was labeled using [γ-^32P] ATP and T4 polynucleotide kinase. […] Samples were subjected to 5% polyacrylamide gel electrophoresis, and the dried gel was exposed to x-ray film. […] The relative levels of luciferase activity were normalized to the levels of untreated cells and to the levels of luciferase activity of the Renilla control plasmid. Data represent the mean±standard deviation of three independent experiments.
as §1

NF-κB = test: TNFα-induced, NF-κB-dependent IκBα promoter luciferase reporter; settings: U87/EGFR cells; NF-κB activation inhibitor II 7 μM 30 min before TNFα 10 ng/mL 8 h
Method: FIG. 63: PKC, NF-κB, PI3-K, and CK2 are inhibited by their inhibitors. A, B: U87/EGFR cells were treated with Bis-I (2 μM) (A) or Go6976 (2 μM) (B) for 30 min before 12-O-tetradecanoylphorbol-13-acetate (TPA) ([…]) for 8 h. Immunoblotting analyses were performed with the indicated antibodies. C: U87/EGFR cells transiently expressing a luciferase reporter vector containing the IκBα promoter were pretreated with or without NF-κB activation inhibitor II (7 μM) for 30 min before TNFα (10 ng/mL) for 8 h. The relative levels of luciferase activity were normalized to the levels of untreated cells and to the levels of luciferase activity of the Renilla control plasmid. Data represent the mean±standard deviation of three independent experiments. […] Immunoblotting analyses were performed with the indicated antibodies.
The luciferase reporter vector pGL3-promoter containing either the WT or a mutated PKM promoter fragment or a luciferase reporter vector containing the IκBα promoter was transfected into U87/EGFR cells, RelA+/+, or RelA−/− fibroblasts seeded in 24-well plates at 1.5×10^4 cells/well. Twelve hours after transfection, the medium was replaced with 0.1% serum for another 12-24 h, and EGF (100 ng/mL) was added 12 h before harvesting. […] cell extract were used for measuring luciferase activity. […]

PTBP1 = PTBP1 protein expression upon EGF stimulation; settings: U251 cells; NF-κB activation inhibitor II 7 μM 30 min before EGF 100 ng/mL 8 h
Method: FIG. 64: EGF increases PKM2 expression in a RelA- and PTBP1-dependent manner. […] Data represent the mean±standard deviation of three independent experiments. […] Immunoblotting analyses were performed with the indicated antibodies. C: RelA deficiency inhibits EGF-increased mRNA levels of PKM2, but not of PKM1. mRNA expression levels of PKM2 and PKM1 in RelA^+/+ and RelA^−/− fibroblasts treated with or without EGF (100 ng/mL) for 8 h were measured by real-time quantitative RT-PCR analysis. β-actin mRNA from the same cDNA library was amplified as a control. The relative mRNA levels of PKM2 (left panel) and PKM1 (right panel) were normalized to the levels of untreated cells and β-actin mRNA. Data represent the mean±SD of three independent experiments. D: PTBP1 depletion blocked EGF-induced PKM2 mRNA expression. […] The relative mRNA levels of PKM2 and PKM1 were normalized to the levels of untreated cells and β-actin mRNA. Data represent the mean±SD of three independent experiments. […] U87/EGFR cells transiently expressing a luciferase reporter vector containing the IκBα promoter were treated with or without TNFα (10 ng/mL) or EGF (100 ng/mL) for 8 h. The relative levels of luciferase activity were normalized to the levels of untreated cells and to the levels of luciferase activity of the Renilla control plasmid. Data represent the mean±standard deviation of three independent experiments.

Row | SMILES | EGF-induced IKKβ activation (IKKβ) | EGF-induced PKM2 upregulation/expression (PKM2 expression) | TNFα-induced and NF-κB-dependent IκBα promoter activation (NF-κB) | PTBP1 protein expression (PTBP1)
1 | COc1ccc2c(c1)CC[C@@H]1[C@@H]2CC[C@]2(C)[C@@H](NCCCCCCN3C(=O)C=CC3=O)CC[C@@H]12 [U73122] | abrogated | abrogated | – | –
2 | Cc1ccc(NCCCc2ccccc2)c(N)c1 [NF-κB activation inhibitor II] | – | largely abrogated | successfully blocked | not affected
